Experimental data published in US12376589B2, “Chryseobacterium insect inhibitory microbial compositions and methods of making and using” (priority 2021, dated 2025).
In brackets after ≈: the same amount, converted by molar mass. Entries after “also recorded” stand apart in the source; their conditions may differ. Read-outs that look alike come from different tables or passages of the source.

What was measured:
[1] = test system: Drosophila suzukii (spotted wing Drosophila); test: Drosophila suzukii diet incorporation assay; type: in vivo; settings: 100, 500, 1000 μg/mL
Protocol: During the development of embodiments of the technology described herein, experiments were conducted to assess the activity of 3,3′-diindolylmethane against Drosophila suzukii. […] A1X=100 μg/mL; A5X=500 μg/mL; A10X=1000 μg/mL. Each concentration was tested with 10 vials containing 20 D. suzukii L2 larvae. “Dpi” indicates days post infestation (0 dpi is the day of egg-laying).

Aedes aegypti larvae = test: whole plant or invertebrate; settings: for LC50: Aedes aegypti
Source text: (§1) Measuring potency of 3,3-diindolylmethane and 3-((1H-indol-2-yl)methyl)-1H-indole. 3,3′-Diindolylmethane (also called arundine, CAS number: 1968-05-4) was purchased from MILLIPORESIGMA (cat #74601) and Cayman Chemical (catalog #15927). 3-((1H-indol-2-yl)methyl)-1H-indole (CAS number: 114648-66-7) was purchased from Ambeed (catalog #A735658). Compounds were resuspended in dimethyl sulfoxide (DMSO). For collecting data to construct dose curves for 3,3-diindolylmethane and 3-((1H-indol-2-yl)methyl)-1H-indole, a series of twenty 1:2 dilutions was made to test in bioassays, establish a dose curve, and determine the LC50 value.
(§2) Aedes aegypti bioassays with compounds. Assays were performed using second or third instar larvae, with biological replication. Larvae were washed with sterile water before transfer to 24-well assay plates containing 1 mL of sterile water in each well. Each well contained 5 larvae. Compound dilutions were made in DMSO, topped with sterile NYSM broth and applied to each assay well. The final DMSO concentration was 1% in each assay well. Larval mortality was scored for each well at 24-hour timepoints after application.
Heat treatments. Samples were heated in 1.5-mL microfuge tubes in a standard laboratory heat block at the indicated temperature and time.
The EtOAc fraction was redissolved in MeOH and subjected to chromatographic fractionation (FIG. 11C) using preparative reversed-phase HPLC (Phenomenex Luna phenylhexyl, 21.2 mm×15 cm, 5 μm, 20 mL/min, isocratic elution with 80% H2O/MeCN for 2 min followed by gradient elution from 80% H2O/MeCN to 100% MeCN over 30 min then isocratic elution with 100% MeCN for 5 min) to yield 30 fractions. The preparative HPLC fractions (at concentrations of 200 μg/mL and 20 μg/mL) were tested against Aedes aegypti.

[2] = test system: Heliothis virescens (tobacco budworm); test: whole plant or invertebrate
Protocol: (§3) Lepidopteran bioassays. Lepidopteran bioassays were performed at Benzon Research, Inc. (Carlisle, PA). 3,3′-Diindolylmethane samples were solubilized in dimethyl sulfoxide (DMSO). Samples were then frozen and shipped to Benzon. Samples were resuspended with 9× volumes of water before application to the assay well. The final DMSO concentration in the assay well was 2%. PLU6 extract samples were prepared as a series of three 1:5 dilutions in dimethyl sulfoxide. Samples were then further diluted with fresh NYSM broth, then shipped to Benzon Research for use in a diet overlay assay. Assays were performed using neonate larvae of 14 different Lepidopteran species (Anticarsia gemmatalis (velvetbean caterpillar), Diatraea grandiosella (southwestern corn borer), Diatraea saccharalis (sugarcane borer), Ostrinia nubilalis (European corn borer), Trichoplusia ni (cabbage looper), Chrysodeixis includens (soybean looper), Spodoptera exigua (beet armyworm), Spodoptera frugiperda (fall armyworm), Spodoptera eridania (southern armyworm), Chloridia virescens (tobacco budworm), Helicoverpa zea (corn earworm), Agrotis ipsilon (black cutworm), Cydia pomonella (codling moth), Plutella xylostella (diamondback moth) with an N=16 or N=32, apart from P. xylostella, for which third instar larvae were used. A diet-surface overlay format was used, in which 500 microliters of diet was placed in each well. One hundred microliters of sample was then pipetted into each well and allowed to dry. A DMSO control was included with each set of samples. An internal Btk (Bacillus thurengiensis kurstaki) standard at a concentration of 1000 ppm was used as a positive control, and water was used as a negative control.
(§4) Experiments were conducted in which mortality of lepidopteran larvae was measured after 7 days of diet overlay treatment with 3,3′-diindolylmethane at the concentrations indicated in Table 3. Mean mortalities and standard deviations were calculated from three independent experiments (each N=16). For each experiment, mortalities were corrected using Abbott's formula (Abbott (1987) “Method of computing the effectiveness of an insecticide” J. American Mosquito Control Association 2: 302-03, incorporated herein by reference). For all species except Plutella xylostella, neonates were used. For P. xylostella, third instar larvae were used. The positive control used was 1000 ppm of Bacillus thuringiensis kurstaki.

[3] = test system: Spodoptera frugiperda (fall armyworm); test: whole plant or invertebrate
Protocol: as §3, §4

[4] = test system: Plutella xylostella (diamondback moth); test: Lepidopteran diet overlay bioassay
Protocol: as §3, §4

[5] = test system: Ostrinia nubilalis (European corn borer); test: Lepidopteran diet overlay bioassay
Protocol: as §3, §4

[6] = test system: Diatraea saccharalis (sugarcane borer); test: Lepidopteran diet overlay bioassay; settings: 168 h, read-out: Mortalities (%) after 7 days of treatment (Abbott’s Correction), SCB
Protocol: as §3

[7] = test system: Helicoverpa zea (corn earworm); test: Lepidopteran diet overlay bioassay; settings: 168 h, read-out: Mortalities (%) after 7 days of treatment (Abbott’s Correction), CEW
Protocol: as §3

[8] = test system: Spodoptera eridania (southern armyworm); test: Lepidopteran diet overlay bioassay; settings: 168 h, read-out: Mortalities (%) after 7 days of treatment (Abbott’s Correction), SAW
Protocol: as §3

[9] = test system: Cydia pomonella (codling moth); test: Lepidopteran diet overlay bioassay; settings: 168 h, read-out: Mortalities (%) after 7 days of treatment (Abbott’s Correction), CM
Protocol: as §3

[10] = test system: Chrysodeixis includens (soybean looper); test: Lepidopteran diet overlay bioassay; settings: in Glycine max, 168 h, read-out: Mortalities (%) after 7 days of treatment (Abbott’s Correction), SBL
Protocol: as §3

[11] = test system: Agrotis ipsilon (black cutworm); test: Lepidopteran diet overlay bioassay
Protocol: as §3

[12] = test system: Diatraea grandiosella (southwestern corn borer); test: Lepidopteran diet overlay bioassay; settings: in Zea mays, 168 h, read-out: Mortalities (%) after 7 days of treatment (Abbott’s Correction), SWCB
Protocol: as §3

[13] = test system: Culex quinquefasciatus larvae; test: whole plant or invertebrate
Source text: as §1
as §2, with “Culex quinquefasciatus” for “Aedes aegypti”, “compounds. First or second instar Culex quinquefasciatus larvae were purchased from Benzon Research, Inc. (Carlisle, PA).” for “compounds.”, “with” for “using second or”, “larvae.” for “larvae, with biological replication.”, “Larvae” for “Larval”

[14] = test system: Trichoplusia ni (cabbage looper); settings: for Mortality, Trichoplusia ni (cabbage looper): 7 days diet overlay, neonates, mean of three experiments (each N=16), Abbott's formula; for Mortalities (%) after 7 days of treatment (Abbott’s Correction), CL: Trichoplusia ni (cabbage looper)
Protocol: as §3, §4

[15] = test system: Spodoptera exigua (beet armyworm); test: whole plant or invertebrate
Protocol: as §3

[16] = test system: Anticarsia gemmatalis (velvetbean caterpillar); test: whole plant or invertebrate
Protocol: as §3

[17] = read-out: LC50 (representative curve fit)
[18] = Heliothis virescens, 168 h, read-out: Mortalities (%) after 7 days of treatment (Abbott’s Correction), TBW
[19] = Heliothis virescens, 168 h, read-out: Mortality, Heliothis virescens (tobacco budworm)
[20] = Spodoptera frugiperda, 168 h, read-out: Mortalities (%) after 7 days of treatment (Abbott’s Correction), FAW
[21] = Spodoptera frugiperda, 168 h, read-out: Mortality, Spodoptera frugiperda (fall armyworm)
[22] = Plutella xylostella, 168 h, read-out: Mortalities (%) after 7 days of treatment (Abbott’s Correction), DBM
[23] = Plutella xylostella, 168 h, read-out: Mortality, Plutella xylostella (diamondback moth)
[24] = Ostrinia nubilalis, 168 h, read-out: Mortality, Ostrinia nubilalis (European corn borer)
[25] = Agrotis ipsilon, 168 h, read-out: Mortalities (%) after 7 days of treatment (Abbott’s Correction), BCW
[26] = Spodoptera exigua, 168 h, read-out: Mortalities (%) after 7 days of treatment (Abbott’s Correction), BAW
[27] = Anticarsia gemmatalis, 168 h, read-out: Mortalities (%) after 7 days of treatment (Abbott’s Correction), VBC

c1ccc2c(Cc3c[nH]c4ccccc34)c[nH]c2c1 [3,3′-diindolylmethane, 3,3′-Diindolylmethane]
egg-to-adult survival [1]: not affected
insecticidal activity against spotted wing Drosophila [1]: did not display insecticidal activity
eclosion rate ([1]; L2 larvae, one-way ANOVA): not affected
pupation rate ([1]; L2 larvae, one-way ANOVA): not affected
LC50 (Aedes aegypti larvae; [17]): 10.2 µg/mL (≈ 41.4 µM)
LC50 (Aedes aegypti larvae; read-out: mean LC50): 7.5 ± 3 µg/mL (≈ 30.4 µM)
activity against Aedes aegypti larvae (Aedes aegypti larvae; in vivo): exhibited larvicidal activity
mortality at 156.25 µg/mL [2, 18]: 74.2%
mortality at 625 µg/mL [2, 18]: 74.2%
mortality at 2500 µg/mL [2, 18]: 87.1%
mortality at 9.77 µg/mL [2, 19]: 3.16%
mortality at 39.06 µg/mL [2, 19]: 40.9%
mortality at 156.25 µg/mL [2, 19]: 85.2%
mortality at 625 µg/mL [2, 19]: 93.8%
mortality at 2500 µg/mL [2, 19]: 83.3%
activity against tobacco budworm ([2]; diet overlay): active; also recorded: dose-dependent activity
mortality at 156.25 µg/mL [3, 20]: 40%
mortality at 625 µg/mL [3, 20]: 63.3%
mortality at 2500 µg/mL [3, 20]: 96.7%
mortality at 9.77 µg/mL [3, 21]: 4.1%
mortality at 39.06 µg/mL [3, 21]: 2.15%
mortality at 156.25 µg/mL [3, 21]: 79%
mortality at 625 µg/mL [3, 21]: 85.1%
mortality at 2500 µg/mL [3, 21]: 95.7%
activity against Spodoptera frugiperda ([3]; diet overlay): active; also recorded: dose-dependent activity
mortality at 156.25 µg/mL [4, 22]: 19.4%
mortality at 625 µg/mL [4, 22]: 6.5%
mortality at 2500 µg/mL [4, 22]: 19.4%
mortality at 9.77 µg/mL [4, 23]: 1.01%
mortality at 39.06 µg/mL [4, 23]: 1.07%
mortality at 156.25 µg/mL [4, 23]: 7.39%
mortality at 625 µg/mL [4, 23]: 15.7%
mortality at 2500 µg/mL [4, 23]: 43.4%
activity against P. xylostella ([4]; diet overlay): low or not observed
mortality at 9.77 µg/mL [5, 24]: 2.08%
mortality at 39.06 µg/mL [5, 24]: 2.08%
mortality at 156.25 µg/mL [5, 24]: 4.17%
mortality at 625 µg/mL [5, 24]: 6.25%
mortality at 2500 µg/mL [5, 24]: 4.17%
activity against O. nubilalis ([5]; diet overlay): low or not observed
mortality at 156.25 µg/mL [6]: 100%
mortality at 625 µg/mL [6]: 100%
mortality at 2500 µg/mL [6]: 100%
mortality at 156.25 µg/mL [7]: 40.6%
mortality at 625 µg/mL [7]: 50%
mortality at 2500 µg/mL [7]: 90.6%
mortality at 156.25 µg/mL [8]: 22.6%
mortality at 625 µg/mL [8]: 100%
mortality at 2500 µg/mL [8]: 100%
mortality at 156.25 µg/mL [9]: 21.4%
mortality at 625 µg/mL [9]: 50%
mortality at 2500 µg/mL [9]: 39.3%
mortality at 156.25 µg/mL [10]: 26.7%
mortality at 625 µg/mL [10]: 50%
mortality at 2500 µg/mL [10]: 80%
mortality at 156.25 µg/mL [11, 25]: 0%
mortality at 625 µg/mL [11, 25]: 26.7%
mortality at 2500 µg/mL [11, 25]: 20%
activity against A. ipsilon ([11]; diet overlay): low or not observed
mortality at 156.25 µg/mL [12]: 46.7%
mortality at 625 µg/mL [12]: 90%
mortality at 2500 µg/mL [12]: 83.3%
LC50 [13, 17]: 7.5 µg/mL (≈ 30.4 µM)
Mortality, Trichoplusia ni (cabbage looper) ([14]; 39.06 μg/mL): 3.00%
Mortality, Trichoplusia ni (cabbage looper) ([14]; 156.25 μg/mL): 22.95%
Mortalities (%) after 7 days of treatment (Abbott’s Correction), CL ([14]; 156.25 μg/mL, diet overlay): 41.4%
Mortality, Trichoplusia ni (cabbage looper) ([14]; 625 μg/mL): 44.60%
Mortalities (%) after 7 days of treatment (Abbott’s Correction), CL ([14]; 625 μg/mL, diet overlay): 72.4%
Mortality, Trichoplusia ni (cabbage looper) ([14]; 2500 μg/mL): 93.25%
Mortalities (%) after 7 days of treatment (Abbott’s Correction), CL ([14]; 2500 μg/mL, diet overlay): 93.1%
activity against Trichoplusia ni ([14]; diet overlay): active; also recorded: dose-dependent activity
mortality at 156.25 µg/mL [15, 26]: 71.9%
mortality at 625 µg/mL [15, 26]: 93.8%
mortality at 2500 µg/mL [15, 26]: 71.9%
activity against Spodoptera exigua ([15]; diet overlay): active; also recorded: dose-dependent activity
mortality at 156.25 µg/mL [16, 27]: 100%
mortality at 625 µg/mL [16, 27]: 70%
mortality at 2500 µg/mL [16, 27]: 96.7%
activity against Anticarsia gemmatalis ([16]; diet overlay): active; also recorded: dose-dependent activity

c1ccc2[nH]c(Cc3c[nH]c4ccccc34)cc2c1 [3-((1H-indol-2-yl)methyl)-1H-indole]
LC50 (Aedes aegypti larvae; [17]): 5.8 µg/mL (≈ 23.5 µM)
LC50 (Aedes aegypti larvae; read-out: mean LC50): 6.3 ± 2.1 µg/mL (≈ 25.6 µM)
LC50 [13, 17]: 1.5 µg/mL (≈ 6.09 µM)
LC50 ([13]; read-out: mean LC50): 0.95 ± 0.75 µg/mL (≈ 3.86 µM)
